Results as given in the supplement of paper PMC11451515.

Legend:
Experiment in all cases: AUC of viability dose-response curve (% viability x log10 dose units); higher = less sensitive
Conditions in all cases: 48 h
[1] = test system: SEM cells
Summary of the method: (§1)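 Seeding of medium-adapted leukemia cells was at 500 or 1000 cells/well in 1536-well plates, followed by 48 h at 37°C with library compounds in DMSO at 11 threefold doses from 47 μM to 0.79 nM. CellTiter-Glo One luminescence was normalised per plate to DMSO and cell-free wells and fitted as a four-parameter log-logistic function of log10 dose. Area under the curve was integrated by trapezoidal rule, with curves exceeding full viability scaled and curves failing quality control removed.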

[2] = test system: P12-Ichikawa
Summary of the method: as §1

[3] = test system: NOMO1
Summary of the method: as §1

[4] = RPMI 5 mM glucose + 10% dialyzed FBS

What does the source list for `CC(C)NCC(O)COc1ccc(COCCOC(C)C)cc1` (centres undefined)?
AUC of viability dose-response curve ([1]; HPLM + 10% dialyzed FBS): 468; AUC of viability dose-response curve ([1]; RPMI 5 mM glucose + 10% FBS): 474; AUC of viability dose-response curve [1, 4]: 469; AUC of viability dose-response curve ([2]; HPLM + 10% dialyzed FBS): 457; AUC of viability dose-response curve ([2]; RPMI 5 mM glucose + 10% FBS): 463; AUC of viability dose-response curve [2, 4]: 463; AUC of viability dose-response curve ([3]; HPLM + 10% dialyzed FBS): 458; AUC of viability dose-response curve ([3]; RPMI 5 mM glucose + 10% FBS): 461; AUC of viability dose-response curve [3, 4]: 459

For `CN\1C(=O)/C(=C(\N=C1N2CCCC[S+]2([O-])=O)C(=O)NCC3=CC=C(F)C=C3)O`, which “AUC of viability dose-response curve” value ([1]; HPLM + 10% dialyzed FBS) is on record?
The value was 471.

What about the “AUC of viability dose-response curve” value ([1]; RPMI 5 mM glucose + 10% FBS) of the same compound?
The value was 458.

And the “AUC of viability dose-response curve” value [1, 4]?
Its value is 466.

And the “AUC of viability dose-response curve” value ([2]; HPLM + 10% dialyzed FBS)?
The value was 444.

What about the “AUC of viability dose-response curve” value ([2]; RPMI 5 mM glucose + 10% FBS) of the same compound?
The value was 462.

And the “AUC of viability dose-response curve” value [2, 4]?
The value was 459.

What about the “AUC of viability dose-response curve” value ([3]; HPLM + 10% dialyzed FBS) of the same compound?
The value was 441.

And the “AUC of viability dose-response curve” value ([3]; RPMI 5 mM glucose + 10% FBS)?
The value was 475.

What about the “AUC of viability dose-response curve” value [3, 4] of the same compound?
The value was 451.

`COc1cc2c(cc1OC)C1CC(=O)C(CC(C)C)CN1CC2` (centres undefined) was tested. Which “AUC of viability dose-response curve” value ([1]; HPLM + 10% dialyzed FBS) did it give?
The value was 471.

What about the “AUC of viability dose-response curve” value ([1]; RPMI 5 mM glucose + 10% FBS) of the same compound?
Its value is 476.

And the “AUC of viability dose-response curve” value [1, 4]?
The value was 459.

And the “AUC of viability dose-response curve” value ([2]; HPLM + 10% dialyzed FBS)?
The value was 459.

And the “AUC of viability dose-response curve” value ([2]; RPMI 5 mM glucose + 10% FBS)?
The value was 459.

What about the “AUC of viability dose-response curve” value [2, 4] of the same compound?
The value was 466.

What about the “AUC of viability dose-response curve” value ([3]; HPLM + 10% dialyzed FBS) of the same compound?
The value was 448.

And the “AUC of viability dose-response curve” value ([3]; RPMI 5 mM glucose + 10% FBS)?
Its value is 470.

And the “AUC of viability dose-response curve” value [3, 4]?
The value was 469.

Which “AUC of viability dose-response curve” value ([1]; HPLM + 10% dialyzed FBS) does the source give for `COc1cc2c(cc1-c1c(C)noc1C)ncc1[nH]c(=O)n([C@H](C)c3ccccn3)c12` here?
The value was 336.

And the “AUC of viability dose-response curve” value ([1]; RPMI 5 mM glucose + 10% FBS)?
Its value is 336.

What about the “AUC of viability dose-response curve” value [1, 4] of the same compound?
The value was 323.

And the “AUC of viability dose-response curve” value ([2]; HPLM + 10% dialyzed FBS)?
Its value is 380.

And the “AUC of viability dose-response curve” value ([2]; RPMI 5 mM glucose + 10% FBS)?
Its value is 396.

And the “AUC of viability dose-response curve” value [2, 4]?
The value was 393.

And the “AUC of viability dose-response curve” value ([3]; HPLM + 10% dialyzed FBS)?
The value was 373.

What about the “AUC of viability dose-response curve” value ([3]; RPMI 5 mM glucose + 10% FBS) of the same compound?
The value was 382.

And the “AUC of viability dose-response curve” value [3, 4]?
The value was 382.

Which “AUC of viability dose-response curve” value ([1]; HPLM + 10% dialyzed FBS) does the source give for `ClC1=C(N\C2=N\CCN2)C3=NSN=C3C=C1` here?
Its value is 419.

And the “AUC of viability dose-response curve” value ([1]; RPMI 5 mM glucose + 10% FBS)?
Its value is 427.

And the “AUC of viability dose-response curve” value [1, 4]?
The value was 432.

And the “AUC of viability dose-response curve” value ([2]; HPLM + 10% dialyzed FBS)?
Its value is 461.

And the “AUC of viability dose-response curve” value ([2]; RPMI 5 mM glucose + 10% FBS)?
Its value is 465.

And the “AUC of viability dose-response curve” value [2, 4]?
The value was 455.

And the “AUC of viability dose-response curve” value ([3]; HPLM + 10% dialyzed FBS)?
Its value is 434.

And the “AUC of viability dose-response curve” value ([3]; RPMI 5 mM glucose + 10% FBS)?
The value was 440.

And the “AUC of viability dose-response curve” value [3, 4]?
The value was 428.

What does the source list for `C[C@]12CC[C@@H]3c4ccc(OC(=O)N(CCCl)CCCl)cc4CC[C@H]3[C@@H]1CC[C@@H]2OP(=O)([O-])[O-].[Na+].[Na+]`?
AUC of viability dose-response curve ([1]; HPLM + 10% dialyzed FBS): 429; AUC of viability dose-response curve ([1]; RPMI 5 mM glucose + 10% FBS): 397; AUC of viability dose-response curve [1, 4]: 382; AUC of viability dose-response curve ([3]; HPLM + 10% dialyzed FBS): 406; AUC of viability dose-response curve ([3]; RPMI 5 mM glucose + 10% FBS): 460; AUC of viability dose-response curve [3, 4]: 455

Which results are given for `CC(C)(C)C(=O)Oc1ccc2c(c1)nc(NC(=O)c1cccc([N+](=O)[O-])c1)n2CCCO`?
AUC of viability dose-response curve ([1]; HPLM + 10% dialyzed FBS): 448; AUC of viability dose-response curve ([1]; RPMI 5 mM glucose + 10% FBS): 452; AUC of viability dose-response curve [1, 4]: 418; AUC of viability dose-response curve ([2]; HPLM + 10% dialyzed FBS): 460; AUC of viability dose-response curve ([2]; RPMI 5 mM glucose + 10% FBS): 437; AUC of viability dose-response curve [2, 4]: 445; AUC of viability dose-response curve ([3]; HPLM + 10% dialyzed FBS): 461; AUC of viability dose-response curve ([3]; RPMI 5 mM glucose + 10% FBS): 459; AUC of viability dose-response curve [3, 4]: 458

With `CCC[C@H](NC(=O)/C(C#N)=C/c1cccc(Br)n1)c1ccccc1` as the compound, how does the “AUC of viability dose-response curve” value ([2]; HPLM + 10% dialyzed FBS) read?
The value was 449.

What about the “AUC of viability dose-response curve” value ([2]; RPMI 5 mM glucose + 10% FBS) of the same compound?
Its value is 447.

And the “AUC of viability dose-response curve” value [2, 4]?
The value was 444.

And the “AUC of viability dose-response curve” value ([3]; HPLM + 10% dialyzed FBS)?
Its value is 437.

And the “AUC of viability dose-response curve” value ([3]; RPMI 5 mM glucose + 10% FBS)?
Its value is 454.

What about the “AUC of viability dose-response curve” value [3, 4] of the same compound?
Its value is 448.

With `C[C@]12C[C@H](O)[C@H]3[C@@H](CC\C4=C\C(=O)\C=C/[C@]34C)[C@@H]1CC[C@]2(O)C(=O)CO` as the compound, how does the “AUC of viability dose-response curve” value ([1]; HPLM + 10% dialyzed FBS) read?
Its value is 389.

And the “AUC of viability dose-response curve” value ([1]; RPMI 5 mM glucose + 10% FBS)?
The value was 380.

What about the “AUC of viability dose-response curve” value [1, 4] of the same compound?
Its value is 359.

And the “AUC of viability dose-response curve” value ([2]; HPLM + 10% dialyzed FBS)?
Its value is 372.

And the “AUC of viability dose-response curve” value ([2]; RPMI 5 mM glucose + 10% FBS)?
Its value is 353.

What about the “AUC of viability dose-response curve” value [2, 4] of the same compound?
Its value is 349.

And the “AUC of viability dose-response curve” value ([3]; HPLM + 10% dialyzed FBS)?
Its value is 446.

What about the “AUC of viability dose-response curve” value ([3]; RPMI 5 mM glucose + 10% FBS) of the same compound?
Its value is 456.

And the “AUC of viability dose-response curve” value [3, 4]?
Its value is 449.

How did the “AUC of viability dose-response curve” value ([1]; HPLM + 10% dialyzed FBS) turn out when `CN(c1ncccc1CNc1nc(Nc2ccc3c(c2)CC(=O)N3)ncc1C(F)(F)F)[S+](C)(=O)[O-]` was run?
The value was 362.

What about the “AUC of viability dose-response curve” value ([1]; RPMI 5 mM glucose + 10% FBS) of the same compound?
The value was 342.

And the “AUC of viability dose-response curve” value [1, 4]?
Its value is 321.

And the “AUC of viability dose-response curve” value ([2]; HPLM + 10% dialyzed FBS)?
The value was 462.

What about the “AUC of viability dose-response curve” value ([2]; RPMI 5 mM glucose + 10% FBS) of the same compound?
Its value is 447.

What about the “AUC of viability dose-response curve” value [2, 4] of the same compound?
Its value is 459.

And the “AUC of viability dose-response curve” value ([3]; HPLM + 10% dialyzed FBS)?
Its value is 451.

What about the “AUC of viability dose-response curve” value ([3]; RPMI 5 mM glucose + 10% FBS) of the same compound?
The value was 448.

And the “AUC of viability dose-response curve” value [3, 4]?
The value was 446.
